25 molecules from patent US11325900B2, “5-(pyrimidin-4-yl)thiazol-2-yl urea derivatives as therapeutic agents” (AUCENTRA HOLDINGS PTY LTD, priority 2018, dated 2022) can be followed below.

In general, IC50 refers to the concentration at which inhibition is half-maximal. Broadly, the GI50 is the concentration that inhibits growth by half.

The target of one assay is T1, CDK8/CycC (Homo sapiens, UniProt P49336).
T1 construct: purchased ProQinase GmbH, Freiburg, Germany
The assay can be described thus: Radiometric protein kinase assay (33PanQinase Activity Assay, ProQinase). The note with it: 1.0 μM ATP, 1.0 μg/50 μL substrate RBER-IRStide, duplicate measurements, read-out: CDK8 Kinase inhibition IC50. It counts as biochemical. As to the method: The kinase activity of CDK8/CycC was measured using a radiometric protein kinase assay (33PanQinase® Activity Assay) by ProQinase GmbH, Freiburg, Germany, with the protocols shown at www.proqinase.com/sites/default/files/public/uploads/WildtypeProfiler/radiometric_assay_v05_2012_manual.pdf. IC50 determination (8.3 nM with 1.0 μM ATP and 1.0 μg/50 μL of substrate RBER-IRStide) was performed as duplicate measurements and calculated using Quattro Workflow V3.1.1 (Quattro Research GmbH, Germany). Apparent inhibition constants (Ki) values were calculated from Km (ATP) and IC50 values for the respective kinases.

A further assay concerns HCT-116. The assay can be described thus: Cell viability assay (MTT, solid tumour cell lines), 72 h growth inhibition. It counts as cell-based. As to conditions: Homo sapiens, HCT-116 cells. An excerpt:
(§1) Compounds from Example 1 may be subjected to a standard MTT (3-(4,5-dimethylthiazol-2-yl)-2,5-diphenyltetrazolium bromide) and resazurin assays on solid tumour cell lines and leukemia cell lines, respectively, as previously reported (Wang S et al., J Med Chem 47:1662-1675, 2004 and Diab S e al. CheMedChem 9:962-972, 2014). Compound concentrations required to inhibit 50% of cell growth (GI50) can be calculated using non-linear regression analysis.

The subject of the next assay is MV-4-11. The assay is described as follows: Cell viability assay (resazurin, leukemia cell lines), 72 h growth inhibition. Format: cell-based. As to conditions: Homo sapiens, MV4-11, MV-4-11 cells.
Source text: as §1
Background: The colour change of resazurin is a common sign of viable cells or microbes.

T1 sequence (P49336 whole entry): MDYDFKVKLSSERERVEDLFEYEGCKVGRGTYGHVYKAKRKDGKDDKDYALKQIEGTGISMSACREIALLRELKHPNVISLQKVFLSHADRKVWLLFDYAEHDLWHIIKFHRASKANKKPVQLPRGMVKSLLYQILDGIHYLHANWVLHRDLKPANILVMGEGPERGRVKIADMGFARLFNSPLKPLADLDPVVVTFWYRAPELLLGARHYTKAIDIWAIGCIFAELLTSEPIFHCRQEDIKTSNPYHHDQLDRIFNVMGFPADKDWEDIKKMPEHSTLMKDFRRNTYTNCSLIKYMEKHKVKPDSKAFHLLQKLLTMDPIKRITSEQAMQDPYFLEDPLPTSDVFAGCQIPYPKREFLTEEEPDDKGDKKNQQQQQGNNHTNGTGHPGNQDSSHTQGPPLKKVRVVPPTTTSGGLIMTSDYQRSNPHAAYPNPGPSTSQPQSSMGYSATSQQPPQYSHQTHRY
T1 sequence (P24863 whole entry partner): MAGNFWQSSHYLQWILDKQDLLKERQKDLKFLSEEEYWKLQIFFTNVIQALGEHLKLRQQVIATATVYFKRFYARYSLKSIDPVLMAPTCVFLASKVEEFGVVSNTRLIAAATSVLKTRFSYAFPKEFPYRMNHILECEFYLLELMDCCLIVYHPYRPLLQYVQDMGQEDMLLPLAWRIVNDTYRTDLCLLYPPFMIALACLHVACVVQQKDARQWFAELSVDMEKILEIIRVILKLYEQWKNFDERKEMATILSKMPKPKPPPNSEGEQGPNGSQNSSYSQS

Take `CNc1nccc(-c2sc(NC(=O)Nc3ccc(Cl)c(C(F)(F)F)c3)nc2C)n1` [Compound 24, 1-(4-Chloro-3-(trifluoromethyl)-phenyl)-3-(4-methyl-5-(2-(methylamino)-pyrimidin-4-yl)thiazol-2-yl)urea]: at CDK8/CycC, the half-maximal inhibitory concentration (IC50) was 0.012 µM. The GI50 in the assay on HCT-116 was 7.25 ± 0.31 µM; in the assay with MV-4-11, 3.48 ± 9.53 µM.

On to `Cc1nc(NC(=O)Nc2cccc(Cl)c2)sc1-c1ccnc(N(C)C)n1` [Compound 47, 1-(3-Chlorophenyl)-3-(5-(2-(dimethylamino)pyrimidin-4-yl)-4-methylthiazol-2-yl)urea], for which the IC50 at CDK8/CycC was determined as 0.038 µM. For the same molecule, the 50% growth inhibitory concentration (GI50) in the assay with HCT-116 stood at 5.77 ± 0.42 µM; in the assay on MV-4-11, 5.28 ± 0.15 µM.

Regarding `CNc1nccc(-c2sc(NC(=O)Nc3ccc(Cl)cc3)nc2C)n1` [Compound 43], the IC50 at CDK8/CycC amounted to 0.009 µM. Also, the values for the GI50 in the assay on HCT-116 and in the assay on MV-4-11 were 5.96 ± 0.44 µM and 1.52 ± 0.8 µM, respectively.

As for `CCOc1cccc(NC(=O)Nc2nc(C)c(-c3ccnc(NC)n3)s2)c1` [Compound 19, 1-(3-Ethoxyphenyl)-3-(4-methyl-5-(2-(methylamino)pyrimidin-4-yl)thiazol-2-yl)urea], the 50% inhibitory concentration (IC50) on CDK8/CycC came out at 0.006 µM. In the assay on HCT-116, it took 0.854 ± 0.01 µM to inhibit growth by half (GI50).

For the molecule `CNc1nccc(-c2cnc(NC(=O)Nc3ccc(CN4CCN(C(C)=O)CC4)c(C(F)(F)F)c3)s2)n1` [Compound 61, 1-(4-((4-Acetylpiperazin-1-yl)methyl)-3-(trifluoromethyl)phenyl)-3-(5-(2-(methylamino)pyrimidin-4-yl)thiazol-2-yl)urea], the 50% inhibitory concentration (IC50) at CDK8/CycC is 0.02 µM. This molecule displayed a GI50 in the assay with MV-4-11 of 0.176 ± 0.04 µM.

As for `CCNc1nccc(-c2sc(NC(=O)Nc3ccc(CN4CCN(C(C)=O)CC4)c(C(F)(F)F)c3)nc2C)n1` [Compound 55, 1-(4-((4-Acetylpiperazin-1-yl)methyl)-3-(trifluoromethyl)-phenyl)-3-(5-(2-(ethylamino)-pyrimidin-4-yl)-4-methylthiazol-2-yl)urea], the half-inhibitory concentration (IC50) at CDK8/CycC stood at 0.035 µM. The molecule further displayed a GI50 in the assay with MV-4-11 of 0.214 ± 0.12 µM.

For `CNc1nccc(-c2sc(NC(=O)Nc3ccc(CN4CCC(N)CC4)c(C(F)(F)F)c3)nc2C)n1` [Compound 39, 1-(4-((4-Aminopiperidin-1-yl)methyl)-3-(trifluoromethyl)-phenyl)-3-(4-methyl-5-(2-(methylamino)pyrimidin-4-yl)thiazol-2-yl)urea], the IC50 at CDK8/CycC was determined as 0.008 µM. In the assay on MV-4-11, the 50% growth inhibitory concentration (GI50) was determined as 0.096 µM.

For `CNc1ncc(Cl)c(-c2sc(NC(=O)Nc3ccc(CN4CCN(C)CC4)c(C(F)(F)F)c3)nc2C)n1` [Compound 65, 1-(5-(5-Chloro-2-(methylamino)pyrimidin-4-yl)-4-methylthiazol-2-yl)-3-(4-((4-methylpiperazin-1-yl)methyl)-3-(trifluoromethyl)phenyl)urea], the 50% inhibitory concentration (IC50) on CDK8/CycC came out at 0.015 µM. This molecule also yielded a concentration for 50% growth inhibition (GI50) in the assay with MV-4-11 of 0.055 ± 0.01 µM.

For the molecule `CNc1nccc(-c2cnc(NC(=O)Nc3ccc(CN4CCN(C)CC4)c(C(F)(F)F)c3)s2)n1` [Compound 58, 1-(5-(2-(Methylamino)pyrimidin-4-yl)thiazol-2-yl)-3-(4-((4-methylpiperazin-1-yl)methyl)-3-(trifluoromethyl)phenyl)urea], the IC50 at CDK8/CycC worked out at 0.007 µM. The GI50 with MV-4-11 came out at 0.001 µM.

`CNc1nccc(-c2sc(NC(=O)Nc3ccc(CN4CCN(C(C)=O)CC4)c(C(F)(F)F)c3)nc2C)n1` [Compound 35, 1-(4-((4-Acetylpiperazin-1-yl)methyl)-3-(trifluoromethyl)-phenyl)-3-(4-methyl-5-(2-(methylamino)pyrimidin-4-yl)thiazol-2-yl)urea]: the half-inhibitory concentration (IC50) on CDK8/CycC stood at 0.014 µM. Further, the GI50 in the assay with MV-4-11 turned out to be 0.085 µM.

On to `CCN1CCN(Cc2ccc(NC(=O)Nc3nc(C)c(-c4ccnc(N)n4)s3)cc2C(F)(F)F)CC1` [Compound 62, 1-(5-(2-Aminopyrimidin-4-yl)-4-methylthiazol-2-yl)-3-(4-((4-ethylpiperazin-1-yl)methyl)-3-(trifluoromethyl)phenyl)urea], for which the IC50 at CDK8/CycC came out at 0.014 µM. This molecule also gave a 50% growth inhibitory concentration (GI50) with MV-4-11 of 0.001 µM.

On to `CNc1nccc(-c2sc(NC(=O)Nc3ccc(CN4CCN(C(C)C)CC4)c(C(F)(F)F)c3)nc2C)n1` [Compound 34, 1-(4-((4-Isopropylpiperazin-1-yl)methyl)-3-(trifluoromethyl)-phenyl)-3-(4-methyl-5-(2-(methylamino)pyrimidin-4-yl)thiazol-2-yl)urea], for which the IC50 at CDK8/CycC was 0.011 µM. In addition, the 50% growth inhibitory concentration (GI50) in the assay on MV-4-11 is below 0.001 µM.

As to `CNc1nccc(-c2sc(NC(=O)Nc3ccc(CN4CCC(C)CC4)c(C(F)(F)F)c3)nc2C)n1` [Compound 40, 1-(4-Methyl-5-(2-(methylamino)-pyrimidin-4-yl)thiazol-2-yl)-3-(4-((4-methylpiperidin-1-yl)methyl)-3-(trifluoromethyl)phenyl)urea], the half-inhibitory concentration (IC50) on CDK8/CycC was determined as 0.034 µM. Besides, the GI50 in the assay on MV-4-11 was 2.51 ± 0.39 µM.

Take `Cc1nc(NC(=O)Nc2ccc(CN3CCOCC3)c(C(F)(F)F)c2)sc1-c1ccnc(N)n1` [Compound 64, 1-(5-(2-Aminopyrimidin-4-yl)-4-methylthiazol-2-yl)-3-(4-(morpholinomethyl)-3-(trifluoromethyl)phenyl)urea]: at CDK8/CycC, the IC50 came to 0.015 µM. This molecule also returned a concentration for 50% growth inhibition (GI50) in the assay on MV-4-11 of 0.275 ± 0.05 µM.

`CNc1nccc(-c2sc(NC(=O)Nc3cccc(OC)c3)nc2C)n1` [Compound 16, 1-(3-Methoxyphenyl)-3-(4-methyl-5-(2-(methylamino)pyrimidin-4-yl)thiazol-2-yl)urea]: the 50% inhibitory concentration (IC50) on CDK8/CycC stood at 0.009 µM. Moreover, the GI50 with MV-4-11 was found to be 2.27 ± 0.68 µM.

With `CSc1nccc(-c2sc(NC(=O)Nc3ccc(CN4CCN(S(C)(=O)=O)CC4)c(C(F)(F)F)c3)nc2C)n1` [Compound 82, 1-(4-Methyl-5-(2-(methylthio)pyrimidin-4-yl)thiazol-2-yl)-3-(4-((4-(methyl-sulfonyl)piperazin-1-yl)methyl)-3-(trifluoromethyl)phenyl)urea], the half-inhibitory concentration (IC50) at CDK8/CycC was determined as 0.22 µM. The same molecule came in with a concentration for 50% growth inhibition (GI50) in the assay on MV-4-11 of 0.721 ± 0.03 µM.

Take `CNc1ncc(F)c(-c2sc(NC(=O)Nc3ccc(CN4CCOCC4)c(C(F)(F)F)c3)nc2C)n1` [Compound 70, 1-(5-(5-Fluoro-2-(methylamino)pyrimidin-4-yl)-4-methylthiazol-2-yl)-3-(4-(morpholinomethyl)-3-(trifluoromethyl)phenyl)urea]: at CDK8/CycC, the IC50 stood at 0.025 µM. In addition, growth in the assay with MV-4-11 was halved (GI50) at 0.273 ± 0.01 µM.

`CSc1nccc(-c2sc(NC(=O)Nc3ccc(CN4CCN(C)CC4)c(C(F)(F)F)c3)nc2C)n1` [Compound 80, 1-(4-Methyl-5-(2-(methylthio)pyrimidin-4-yl)thiazol-2-yl)-3-(4-((4-methyl-piperazin-1-yl)methyl)-3-(trifluoromethyl)phenyl)urea]: at CDK8/CycC, the 50% inhibitory concentration (IC50) came to 0.079 µM. In the assay on MV-4-11, this molecule gave a GI50 of 0.001 µM.

With `CCN1CCN(Cc2ccc(NC(=O)Nc3ncc(-c4ccnc(NC)n4)s3)cc2C(F)(F)F)CC1` [Compound 59, 1-(4-((4-Ethylpiperazin-1-yl)methyl)-3-(trifluoromethyl)phenyl)-3-(5-(2-(methylamino)pyrimidin-4-yl)thiazol-2-yl)urea], at CDK8/CycC, the IC50 amounted to 0.012 µM. Moreover, the 50% growth inhibitory concentration (GI50) with MV-4-11 is 0.001 µM.

`Cc1nc(NC(=O)Nc2ccc(CN3CCN(C)CC3)c(C(F)(F)F)c2)sc1-c1ccnc(C(C)C)n1` [Compound 76, 1-(5-(2-Isopropylpyrimidin-4-yl)-4-methylthiazol-2-yl)-3-(4-((4-methylpiperazin-1-yl)methyl)-3-(trifluoromethyl)phenyl)urea]: the IC50 on CDK8/CycC stood at 0.074 µM. Moreover, the GI50 in the assay on MV-4-11 was below 0.001 µM.

Take `Cc1nc(NC(=O)Nc2ccc(CN3CCN(S(C)(=O)=O)CC3)c(C(F)(F)F)c2)sc1-c1ccnc(C(C)C)n1` [Compound 78, 1-(5-(2-Isopropylpyrimidin-4-yl)-4-methylthiazol-2-yl)-3-(4-((4-(methylsulfonyl)-piperazin-1-yl)methyl)-3-(trifluoromethyl)phenyl)urea]: the IC50 at CDK8/CycC was 0.293 µM. For the same molecule, growth in the assay with MV-4-11 was halved (GI50) at 1.59 ± 0.09 µM.

Consider `Cc1nc(NC(=O)Nc2ccc(CN3CCN(C)CC3)c(C(F)(F)F)c2)sc1-c1ccnc(N(C)C)n1` [Compound 49, 1-(5-(2-(Dimethylamino)pyrimidin-4-yl)-4-methylthiazol-2-yl)-3-(4-((4-methylpiperazin-1-yl)methyl)-3-(trifluoromethyl)phenyl)urea], for which the IC50 on CDK8/CycC was determined as 0.082 µM. In the assay on MV-4-11, this molecule displayed a concentration for 50% growth inhibition (GI50) below 0.001 µM.

Take `CNc1ncc(C#N)c(-c2sc(NC(=O)Nc3ccc(CN4CCN(C)CC4)c(C(F)(F)F)c3)nc2C)n1` [Compound 71, 1-(5-(5-Cyano-2-(methylamino)pyrimidin-4-yl)-4-methylthiazol-2-yl)-3-(4-((4-methylpiperazin-1-yl)methyl)-3-(trifluoromethyl)phenyl)urea]: the IC50 on CDK8/CycC stood at 0.05 µM. The molecule further returned a GI50 with MV-4-11 of 0.2 ± 0.02 µM.

On to `CC(=O)N1CCN(Cc2ccc(NC(=O)Nc3nc(C)c(-c4ccnc(N(C)C)n4)s3)cc2C(F)(F)F)CC1` [Compound 50, 1-(4-((4-Acetylpiperazin-1-yl)methyl)-3-(trifluoromethyl)-phenyl)-3-(5-(2-(dimethylamino)-pyrimidin-4-yl)-4-methylthiazol-2-yl)urea], for which the half-inhibitory concentration (IC50) at CDK8/CycC is 0.202 µM. The same molecule yielded a GI50 in the assay with MV-4-11 of 0.612 ± 0.06 µM.

On to `CSc1nccc(-c2sc(NC(=O)Nc3ccc(CN4CCN(C(C)=O)CC4)c(C(F)(F)F)c3)nc2C)n1` [Compound 81, 1-(4-((4-Acetylpiperazin-1-yl)methyl)-3-(trifluoromethyl)phenyl)-3-(4-methyl-5-(2-(methylthio)pyrimidin-4-yl)thiazol-2-yl)urea], for which the concentration for half-maximal inhibition (IC50) on CDK8/CycC is 0.177 µM. This molecule also showed a GI50 in the assay with MV-4-11 of 0.715 ± 0.01 µM.
